The results in this text go back to patent publication US7202228B2, “Hydrogelation agents” (Japan Science and Technology Agency, priority 2001, dated 2007).

Data set [1] is described as follows: Gelatinizing ability in aqueous solutions of varying pH (gel formation observed). It counts as physicochemical. The note with it: for formation of a gel, pH 401: 10 mg compound in 0.5 ml buffer solution pH 401; for formation of a gel, pH 401 / formation of a gel, pH 755 / formation of a gel, pH 918 / formation of a gel, pH 168 / formation of a gel, milliQ water: 60° C. or more, ultrasound one hour, then room temperature; for formation of a gel, pH 755: 10 mg compound in 0.5 ml buffer solution pH 755; for formation of a gel, pH 918: 10 mg compound in 0.5 ml buffer solution pH 918; for formation of a gel, pH 168: 10 mg compound in 0.5 ml buffer solution; for formation of a gel, milliQ water: 10 mg compound in 0.5 ml milliQ water (distilled water); for solidification of milliQ water (distilled water) or water of pH 4–9: concentration of hydrogelatinizer 2wt %. Further details: key to formation of a gel, pH 168 / formation of a gel, pH 401 / formation of a gel, pH 755 / formation of a gel, pH 918 / formation of a gel, milliQ water: the formation of gel is indicated by “G”; partial formation of gel is indicated by “LG”; unchanged aqueous solution is indicated by “S”; the formation of a precipitate is indicated by “P”; insolubility is indicated by “I”. As for the experimental part:
The gelatinizing ability was examined for aqueous solutions, of varying pH, of Compounds 1–7 synthesized in Manufacturing Examples 1–7. 10 mg of these compounds was placed in a sample bottle together with 0.5 ml of buffer solution adjusted to various pH, and while maintaining the temperature at 60° C. or more, the mixture was irradiated with ultrasound for one hour. After leaving the resulting aqueous solution at room temperature, the formation of a gel was observed.
In the table, the formation of gel is indicated by “G”, partial formation of gel is indicated by “LG”, unchanged aqueous solution is indicated by “S”, the formation of a precipitate is indicated by “P”, and insolubility is indicated by “I”.

Data set [2] is described as follows: Hydrogel formation in water (dissolve at 60° C. or more, leave at room temperature). The data set is classed as physicochemical. The note with it: left at room temperature. As to the method: Next, the method of manufacturing a hydrogel will be described. The gelatinizer of the invention is dissolved in an aqueous solution. A weakly acidic (pH 4) or weakly alkaline (pH 10) aqueous solution is preferred from the viewpoint of solubility. If the pH of the aqueous solution is less than 4, all of the phosphoric acid part is protonated, and it is difficult to dissolve in water. If the pH is higher than 10, the phosphoric acid part dissociates, and remains dissociated so that the water is not solidified. After dissolving the compound in the aqueous solution with heating, it is gradually cooled to room temperature and allowed to stand. In the dissolution process, heat alone is sufficient if the compound can be completely dissolved. If necessary, the compound can be efficiently converted to a simple dispersion in an aqueous solvent by ultrasound. The heating time is of the order of 30 minutes to 2 hours, but to ensure that dissolution of the compound is complete, it is preferably one hour or more. When the aqueous solution in which the compound has been dissolved is gradually cooled in air, and left at room temperature, the aqueous solution solidifies within one day-several days, and forms a hydrogel. […] The fluidity of the resulting gel may be varied by adjusting the pH of the water and the concentration of the gelatinizer during manufacture. In general, the formation of the hydrogel may be observed with the naked eye, but if the microstructure of the gel is observed using an optical microscope or scanning electron microscope, it can be seen that extremely fine fibers of the order of nanometers are entangled together to form a lattice structure.

Where [3] appears, read: 100 mg in 0.5 ml of water, dissolved at 60° C. or more.

In the case of `Cc1cn(C2CC(OP(=O)(O)OCCCCCCCCCCCCCCOP(=O)(O)OC3CC(n4cc(C)c(=O)[nH]c4=O)OC3CO)C(CO)O2)c(=O)[nH]c1=O` (stereo not shown) [Compound 3, 1,14-(tetradecanedioxy)bis-(3′-phosphatidyl-2′-deoxythymidine)], in data set [1], the “formation of a gel, pH 401” value is listed as “S”; the “formation of a gel, pH 755” value is “S”; the “formation of a gel, pH 918” value is “S”; the “formation of a gel, pH 168” value is “I”. The “formation of a gel, milliQ water” value in data set [1] is reported as “S”.
As for `Cc1cn([C@H]2C[C@H](OP(=O)(O)OCCCCCCCCCCCCCCCCCCCCOP(=O)(O)O[C@H]3C[C@H](n4cc(C)c(=O)[nH]c4=O)O[C@@H]3CO)[C@@H](CO)O2)c(=O)[nH]c1=O` [Compound 7, 1,20-(icosanedioxy)bis-(3′-phosphatidyl-2′-deoxythymidine)], in data set [1], the “formation of a gel, pH 401” value is listed as “LG”; the “formation of a gel, pH 755” value was “G”; the “formation of a gel, pH 918” value is given as “G”; the “formation of a gel, pH 168” value is reported as “I”. In data set [1], the “formation of a gel, milliQ water” value was “G” and the “solidification of milliQ water (distilled water) or water of pH 4–9” value was “efficiently solidified”. The hydrogel formation result in data set [2] (1 mg in 0.5 ml of water, 60° C. or more, ultrasound one hour) is reported as “solidified after several days”.
Regarding `Cc1cn([C@H]2C[C@H](OP(=O)(O)OCCCCCCCCCCCCOP(=O)(O)O[C@H]3C[C@H](n4cc(C)c(=O)[nH]c4=O)O[C@@H]3CO)[C@@H](CO)O2)c(=O)[nH]c1=O` [Compound 1, 1,12-(dodecanedioxy)bis(3′-phosphatidyl-2′-deoxythymidine)], in data set [1], the “formation of a gel, pH 401” value is on record as “S”; the “formation of a gel, pH 755” value was “S”; the “formation of a gel, pH 918” value is “S”; the “formation of a gel, pH 168” value is on record as “I”. For the same molecule, in data set [1], the “formation of a gel, milliQ water” value is recorded as “S”. Moreover, the hydrogel formation entry in data set [2] (setting [3]) is on record as “solidified after several days”.
`Cc1cn([C@H]2C[C@H](OP(=O)(O)OCCCCCCCCCCCCCCCCCCOP(=O)(O)O[C@H]3C[C@H](n4cc(C)c(=O)[nH]c4=O)O[C@@H]3CO)[C@@H](CO)O2)c(=O)[nH]c1=O` [Compound 6, 1,18-(octadecanedioxy)bis-(3′-phosphatidyl-2′-deoxythymidine)]: in data set [1], the “formation of a gel, pH 401” value is listed as “P”; the “formation of a gel, pH 755” value is on record as “P”; the “formation of a gel, pH 918” value is on record as “S”; the “formation of a gel, pH 168” value was “I”. Besides, in data set [1], the “formation of a gel, milliQ water” value was “G” and the “solidification of milliQ water (distilled water) or water of pH 4–9” value was “efficiently solidified”.
In the case of `Cc1cn([C@H]2C[C@H](OP(=O)(O)OCCCCCCCCCCCCCCCCOP(=O)(O)O[C@H]3C[C@H](n4cc(C)c(=O)[nH]c4=O)O[C@@H]3CO)[C@@H](CO)O2)c(=O)[nH]c1=O` [Compound 5, 1,16-(hexadecanedioxy)-bis(3′-phosphatidyl-2′-deoxythymidine)], in data set [1], the “formation of a gel, pH 401” value is given as “S”; the “formation of a gel, pH 755” value was “S”; the “formation of a gel, pH 918” value is reported as “S”; the “formation of a gel, pH 168” value is listed as “I”. In addition, the “formation of a gel, milliQ water” value in data set [1] was “P”.
Take `Cc1cn(C2CC(OP(=O)(O)OCCCCCCCCCCCCCCCOP(=O)(O)OC3CC(n4cc(C)c(=O)[nH]c4=O)OC3CO)C(CO)O2)c(=O)[nH]c1=O` (stereo not shown) [Compound 4, 1,15-(pentadecanedioxy)-bis(3′-phosphatidyl-2′-deoxythymidine)]: in data set [1], the “formation of a gel, pH 401” value is “S”; the “formation of a gel, pH 755” value is on record as “S”; the “formation of a gel, pH 918” value is listed as “S”; the “formation of a gel, pH 168” value is reported as “I”. For the same molecule, in data set [1], the “formation of a gel, milliQ water” value is given as “P”.
Regarding `Cc1cn([C@H]2C[C@H](OP(=O)(O)OCCCCCCCCCCCCCOP(=O)(O)O[C@H]3C[C@H](n4cc(C)c(=O)[nH]c4=O)O[C@@H]3CO)[C@@H](CO)O2)c(=O)[nH]c1=O` [Compound 2, 1,13-(tridecanedioxy)bis-(3′-phosphatidyl-2′-deoxythymidine)], in data set [1], the “formation of a gel, pH 401” value is listed as “S”; the “formation of a gel, pH 755” value is “S”; the “formation of a gel, pH 918” value is recorded as “S”; the “formation of a gel, pH 168” value is given as “I”. The “formation of a gel, milliQ water” value in data set [1] was “S”. Besides, the hydrogel formation result in data set [2] (setting [3]) is recorded as “a hydrogel was obtained”.
